Like-named read-outs stand apart in the source and are kept apart here.
What was measured:
Type in all cases: biochemical
[1] = target: T1, Cathepsin L (human) (Homo sapiens, UniProt P07711); experiment: Protease assay, fluorogenic substrate Z-Phe-Arg-AMC: Cathepsin L
T1 construct: Cathepsin L (human liver) Calbiochem; purchased Calbiochem; host or cells: human liver (tissue-derived)
Excerpt: (§1) 2.1.1. Protease Assays as shown in tables 1 and 2: Cathepsin L (human), Cathepsin B (human), Rhodesain (Trypanosoma brucei rhodesiense), Falcipain 2 (Plasmodium falciparum)
(§2) Enzyme assays used to identify inhibitors of the target cysteine proteases. The effect is detected measuring fluorescence increase due to hydrolysis of fluorogenic substrates by the target enzymes in absence and presence of potential inhibitors.
(§3) • a. Proteins (enzymes): • Cathepsin L (human liver) Calbiochem • Cathepsin B (human liver) Calbiochem • Rhodesain: recombinantly expressed according to ref.: Caffrey, C. R.; Hansell, E.; Lucas, K. D.; Brinen, L. S.; Hernandez, A. A.; Cheng, J.; Gwaltney, S. L., II; Roush, W. R.; Stierhof, Y. D.; Bogyo, M.; Steverding, D.; McKerrow, J. H. Active site mapping, biochemical properties and subcellular localization of rhodesain, the major cysteine protease of Trypanosoma • Falcipain 2: recombinantly expressed according to ref.: Pandey, K. C.; Wang, S. X.; Sijwali, P. S.; Lau, A. L.; McKerrow, J. H.; Rosenthal, P. J. The Plasmodium falciparum cysteine protease falcipain-2 captures its substrate, hemoglobin, via a unique motif. Proc. Natl. Acad. Sci. U.S.A. 2005, 102, 9138-9143. • b. Buffers: • Cathepsin B: 50 mM Tris-Puffer pH 6.5 mit 2 mM DTT, 5 mM EDTA, 200 mM NaCl, 0.005% Brij35 • Cathepsin L: 50 mM Tris-Puffer pH 6.5 mit 2 mM DTT, 5 mM EDTA, 200 mM NaCl, 0.005% Brij35 • Rhodesain: 50 mM Acetat-Puffer pH 5.5 mit 5 mM DTT, 5 mM EDTA, 200 mM NaCl, 0.005% Brij35 • Falcipain 2: 50 mM Acetat-Puffer pH 5.5 mit 5 mM DTT, 5 mM EDTA, 200 mM NaCl, 0.005% Brij35 • c. Substrates: • Cathepsin L: 6,25 µM Z-Phe-Arg-7-amino-4-methylcumarin, HCl von Bachem, Ex 380 nm, Em 460 nm • Cathepsin B: 100 µM Z-Phe-Arg-7-amino-4-methylcumarin, HCl von Bachem, Ex 380 nm, Em 460 nm • Rhodesain: 10µM Z-Phe-Arg-7-amino-4-methylcumarin, HCl von Bachem, Ex 380 nm, Em 460 nm • Falcipain 2: 25µM Z-Phe-Arg-7-amino-4-methylcumarin, HCl von Bachem, Ex 380 nm, Em 460 nm • Reference substance(s)/positive control(s): E64 • d. Solvent for inhibitors and substrates: DMSO 99,5% (GC) DC4540, Sigma • e. Measurement device: Tecan Fluorescence spectrophotometer infinite F200 Pro • f. Well plates: 96 well plates, Lia-Plate White, Greiner bio-one, flat bottom, high binding • g. Methodology: Substrates and inhibitor stock solutions are prepared in DMSO and diluted with the respective assay buffer (final DMSO concentration: […]). Enzyme stock solutions are diluted with assay buffer to yield a fluorescence increase of dF/min ≈ _20. Total volume: 200 µL (180 µL of assay buffer, 5 µL of enzyme solution, 10 µL of DMSO or inhibitor solution, 5 µL of substrate solution). Assays are started by the addition of substrate solution. Fluorescence increase is detected over a period of 10 - 30 min, depending on time dependent (30 min) or non-time dependent (10 min) inhibition. • h. Temp: 25 °C • i. DATA-[…] • Software: Grafit 5.013 • Ki values are calculated from IC50 values (obtained by the 4-parameter IC50 equation) using the Chen-Prusoff equation: Ki=IC50/(1 + [S]/Km)
(§4) In vitro inhibition of cysteine-proteases cruzain (CR) (Trypanosoma cruzi (T. cruzi)), rhodesain (RD) (T. brucei), cathepsin B (CB), falcipain (FP2) (Plasmodium falciparum) and cathepsin L (CL) was assessed by quantification of the resulting fluorescence emission of the proteolytic breakdown of synthetic compound Z-Phe-Arg-AMC (Bachem). The results of this determination are shown in tables 1 and 2 illustrated above.

[2] = target: T2, Falcipain 2 (Plasmodium falciparum, UniProt Q8I6U4); experiment: Protease assay, fluorogenic substrate Z-Phe-Arg-AMC: Falcipain 2; details: FP2=Falcipain2
T2 construct: made in house
Excerpt: as §1, §2, §3, §4

[3] = target: T3, Cathepsin B (human) (Homo sapiens, UniProt P07858); experiment: Protease assay, fluorogenic substrate Z-Phe-Arg-AMC: Cathepsin B
T3 construct: Cathepsin B (human liver) Calbiochem; purchased Calbiochem; host or cells: human liver (tissue-derived)
Excerpt: as §1, §2, §3, §4

[4] = target: T4, Rhodesain (Trypanosoma brucei rhodesiense, UniProt Q95PM0); experiment: Protease assay, fluorogenic substrate Z-Phe-Arg-AMC: Rhodesain; details: for IC50: RD=Rhodesain, 25 °C, pH 5.5, 10µM substrate
T4 construct: made in house
Excerpt: as §1, §2, §3, §4

[5] = target: cruzain (CR) (Trypanosoma cruzi, UniProt P25779); experiment: In vitro inhibition of cruzain, fluorescence of Z-Phe-Arg-AMC breakdown
Description: as §2, §4

[6] = CL=CathepsinL; 25 °C, pH 6.5, 6,25 µM substrate; read-out: CL(IC50)
[7] = CB=CathepsinB; 25 °C, pH 6.5, 100 µM substrate; read-out: CBIC50micM

T1 sequence (P07711 114-333): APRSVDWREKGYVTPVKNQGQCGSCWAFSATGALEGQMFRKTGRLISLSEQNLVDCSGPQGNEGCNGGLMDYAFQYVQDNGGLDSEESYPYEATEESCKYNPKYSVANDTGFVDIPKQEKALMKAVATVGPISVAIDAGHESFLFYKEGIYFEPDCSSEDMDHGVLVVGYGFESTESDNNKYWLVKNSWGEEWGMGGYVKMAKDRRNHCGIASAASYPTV
T4 sequence (Q95PM0 entry or part of it): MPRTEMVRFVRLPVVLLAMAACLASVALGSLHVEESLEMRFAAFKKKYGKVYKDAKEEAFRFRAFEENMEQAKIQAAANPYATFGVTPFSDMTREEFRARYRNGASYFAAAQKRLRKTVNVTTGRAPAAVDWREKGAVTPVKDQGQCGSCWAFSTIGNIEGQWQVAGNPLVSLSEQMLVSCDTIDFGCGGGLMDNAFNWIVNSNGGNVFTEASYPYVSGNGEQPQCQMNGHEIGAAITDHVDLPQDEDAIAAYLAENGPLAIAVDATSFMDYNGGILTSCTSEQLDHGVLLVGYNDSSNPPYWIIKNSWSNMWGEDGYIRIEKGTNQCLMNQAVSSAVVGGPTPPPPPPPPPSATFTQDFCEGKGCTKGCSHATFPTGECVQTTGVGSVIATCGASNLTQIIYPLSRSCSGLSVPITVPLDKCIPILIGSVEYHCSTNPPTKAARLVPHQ
T2 sequence (Q8I6U4 244-484): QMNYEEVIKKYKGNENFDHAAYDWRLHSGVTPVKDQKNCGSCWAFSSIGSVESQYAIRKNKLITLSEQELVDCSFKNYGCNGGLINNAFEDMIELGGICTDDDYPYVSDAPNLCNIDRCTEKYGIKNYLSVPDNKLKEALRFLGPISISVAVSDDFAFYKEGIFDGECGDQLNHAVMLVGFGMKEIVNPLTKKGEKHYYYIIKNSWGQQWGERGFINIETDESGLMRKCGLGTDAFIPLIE
Chain of cruzain (CR) (P25779 123-467): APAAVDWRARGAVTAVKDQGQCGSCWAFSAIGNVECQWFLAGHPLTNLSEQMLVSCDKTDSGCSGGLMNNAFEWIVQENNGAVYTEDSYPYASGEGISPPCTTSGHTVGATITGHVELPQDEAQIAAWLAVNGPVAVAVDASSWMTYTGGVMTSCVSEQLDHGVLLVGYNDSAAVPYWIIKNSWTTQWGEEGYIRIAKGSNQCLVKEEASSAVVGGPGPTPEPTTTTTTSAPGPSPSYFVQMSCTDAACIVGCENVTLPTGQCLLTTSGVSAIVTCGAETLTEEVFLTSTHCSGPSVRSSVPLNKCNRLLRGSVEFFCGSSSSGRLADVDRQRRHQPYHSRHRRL

Structure (SMILES)	CL(K2nd(M-1s-1)) ([1]; CL=CathepsinL)	IC50 [1, 6]	FP2(K2nd(M-1s-1)) [2]	CB(K2nd(M-1s-1)) ([3]; CB=CathepsinB)	IC50 [3, 7]	RD(K2nd(M-1s-1)) [4]	IC50 [4]	CR(K2nd(M-1s-1)) [5]	IC50 [5]	IC50 ([1]; read-out: CL(IC50); CL=CathepsinL; 25 °C, pH 6.5, 6,25 µM substrate)	IC50 ([3]; read-out: CBIC50micM; CB=CathepsinB; 25 °C, pH 6.5, 100 µM substrate)
CCOC(=O)/C=C/[C@@H](O)[C@H](CCc1ccccc1)NC(=O)[C@H](Cc1ccccc1)NC(=O)OCc1ccccc1	1127 M⁻¹ s⁻¹	13 µM	557 M⁻¹ s⁻¹	772 M⁻¹ s⁻¹	24 µM	3207 M⁻¹ s⁻¹	9.5 µM				
CCOC(=O)/C=C/[C@@H](O)[C@H](C)NC(=O)[C@H](Cc1ccccc1)NC(=O)OCc1ccccc1	828 M⁻¹ s⁻¹	14.3 µM	2,735 M-1s-1			10951 M⁻¹ s⁻¹	45.1 µM				
O=C(O)/C=C/[C@@H](O)[C@H](CCc1ccccc1)NC(=O)[C@H](Cc1ccccc1)NC(=O)OCc1ccccc1	882 M⁻¹ s⁻¹	20 µM	29 M⁻¹ s⁻¹								
CCOC(=O)/C=C/[C@@H](O)[C@H](CCc1ccccc1)NC(=O)[C@H](Cc1ccccc1)NC(=O)N1CCOCC1	1860 M⁻¹ s⁻¹	2.45 µM		4190 M⁻¹ s⁻¹	1.13 µM	36735 M⁻¹ s⁻¹	1.13 µM	3615 M⁻¹ s⁻¹	3.75 µM		
CCOC(=O)/C=C/C(=O)[C@H](CC(C)C)NC(=O)[C@H](Cc1ccccc1)NC(=O)OCc1ccccc1	758621 M⁻¹ s⁻¹			138462 M⁻¹ s⁻¹		1611111 M⁻¹ s⁻¹	0.0164 µM	516667 M⁻¹ s⁻¹	0.0162 µM	0.0096 µM	0.053 µM

From patent EP2975033A1, “Improved cysteine-protease inhibitors” (Universitat Jaume I, priority 2014, dated 2016)
